How the values were obtained:
[1] = biological target: T1, 5-HT1A serotonin receptor (Rattus norvegicus, UniProt P19327); test: 5-HT1A receptor binding: displacement of [3H] 8-OHDPAT; conditions: procedure of Hall et al.
T1 construct: following the procedure of Hall et al., J. Neurochem; 44 1685 (1985); from tissue
T1 sequence (P19327 1-422): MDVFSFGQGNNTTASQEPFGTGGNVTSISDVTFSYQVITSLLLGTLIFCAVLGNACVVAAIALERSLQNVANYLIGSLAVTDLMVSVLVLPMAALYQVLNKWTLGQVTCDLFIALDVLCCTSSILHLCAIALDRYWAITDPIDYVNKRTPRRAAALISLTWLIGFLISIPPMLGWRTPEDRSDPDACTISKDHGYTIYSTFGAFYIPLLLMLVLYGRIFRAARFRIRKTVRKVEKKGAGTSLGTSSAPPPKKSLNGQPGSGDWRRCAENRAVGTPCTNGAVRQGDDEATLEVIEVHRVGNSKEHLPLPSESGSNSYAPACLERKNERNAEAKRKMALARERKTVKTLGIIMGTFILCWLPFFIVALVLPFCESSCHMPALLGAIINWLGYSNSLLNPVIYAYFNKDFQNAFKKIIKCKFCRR
Procedure: High affinity for the serotonin 5-HT1A receptor for the compounds of this invention was established by testing them in accordance with the standard pharmacological test procedure in which the compound's ability to displace [^3 H] 8-OHDPAT (dipropylaminotetralin) from the 5-HT1A serotonin receptor was determined following the procedure of Hall et al., J. Neurochem. 44 1685 (1985). […] The anxiolytic activity of buspirone is believed to be, at least partially, due to its 5-HT1A receptor affinity [VanderMaelen et al., Eur. J. Pharmacol. 1986, 129 (123-130)].

[2] = biological target: T1, 5-HT1A serotonin receptor; conditions: buspirone, literature (VanderMaelen et al. 1986); cited from earlier work

SMILES	IC50 [1] [nM]	affinity for the 5-HT1A serotonin receptor (in words) [2]
CN1c2ccccc2[C@@H]2CCN(CCC(C(=O)N3CCCCCC3)c3ccccc3)C[C@H]21 (relative stereo) [Example 3, 1-Azepan-1-yl-4-((trans)-9-methyl-1,3,4,4a,9,9a-hexahydro-2H-pyrido[3,4-b]indol-2-yl)-2-phenyl-butan-1-one]	37.1	–
O=C(C(CCN1CC[C@H]2c3ccccc3N[C@H]2C1)c1ccccc1)N1CCCCCC1 (relative stereo) [Example 4, 1-Azepan-1-yl-4-((cis)-1,3,4,4a,9,9a-hexahydro-2H-pyrido[3,4-b]indol-2-yl)-2-phenyl-butan-1-one]	67.4	–
O=C(C(CCN1CCc2c([nH]c3ccccc23)C1)c1ccccc1)N1CCCCCC1 (centres unmarked) [Example 1, 1-Azepan-1-yl-2-phenyl-4-(1,3,4,9-tetrahydro-2H-pyrido[3.4-b]indol-2-yl]-butan-1-one]	30.9	–
Cn1c2c(c3ccccc31)CCN(CCC(C(=O)N1CCCCCC1)c1ccccc1)C2 (centres unmarked) [Example 2, 1-Azepan-1-yl-4-(9-methyl-1,3,4,9-tetrahydro-2H-pyrido[3.4-b]-indol-2-yl]-2-phenyl-butan-1-one]	33.3	–
O=C1CC2(CCCC2)CC(=O)N1CCCCN1CCN(c2ncccn2)CC1 [buspirone]	–	potent affinity

Source: patent US5466688A, “Pyrido[3,4-B]indole derivatives as serotonergic agents” (American Home Products Corporation, priority 1994, dated 1995)
